Results as given in the supplement of paper PMC10307832.

Legend:
Assay in all cases: relative viability (nuclei count vs DMSO), 5 days (fraction); higher = more cells survive
Elesclomol + Vorinostat = compound: CN(NC(=O)CC(=O)NN(C)C(=S)c1ccccc1)C(=S)c1ccccc1 [Elesclomol] + O=C(CCCCCCC(=O)Nc1ccccc1)NO [Vorinostat] (partner 1 µM)
Procedure, shortened: (§1)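 Relative viability was taken as the ratio of nuclei in treated wells to nuclei in vehicle wells. Lung cancer cell lines in 1536-well plates received compounds by pin tool one day after seeding, either one drug alone or a fixed anchor-drug dose plus five library-drug doses (not always all listed) in √10 steps. Nuclei were counted on 4× images after 5 days of treatment, and values are medians of duplicate plates.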

Elesclomol + Olaparib = compound: CN(NC(=O)CC(=O)NN(C)C(=S)c1ccccc1)C(=S)c1ccccc1 [Elesclomol] + O=C(c1cc(Cc2n[nH]c(=O)c3ccccc23)ccc1F)N1CCN(C(=O)C2CC2)CC1 [Olaparib] (partner 8 µM)
Procedure, shortened: as §1

Elesclomol + Dasatinib = compound: CN(NC(=O)CC(=O)NN(C)C(=S)c1ccccc1)C(=S)c1ccccc1 [Elesclomol] + Cc1nc(Nc2ncc(C(=O)Nc3c(C)cccc3Cl)s2)cc(N2CCN(CCO)CC2)n1 [Dasatinib] (partner 0.075 µM)
Procedure, shortened: as §1

Elesclomol + Tozasertib = compound: CN(NC(=O)CC(=O)NN(C)C(=S)c1ccccc1)C(=S)c1ccccc1 [Elesclomol] + Cc1cc(Nc2cc(N3CCN(C)CC3)nc(Sc3ccc(NC(=O)C4CC4)cc3)n2)n[nH]1 [Tozasertib] (partner 0.1 µM)
Procedure, shortened: as §1

Elesclomol + Linsitinib = compound: CN(NC(=O)CC(=O)NN(C)C(=S)c1ccccc1)C(=S)c1ccccc1 [Elesclomol] + C[C@]1(O)C[C@@H](c2nc(-c3ccc4ccc(-c5ccccc5)nc4c3)c3c(N)nccn32)C1 [Linsitinib] (partner 1 µM)
Procedure, shortened: as §1

Cell Line | relative viability (Elesclomol + Vorinostat; first compound 0.003162 µM) | relative viability (Elesclomol + Vorinostat; first compound 0.01 µM) | relative viability (Elesclomol + Vorinostat; first compound 0.03162 µM) | relative viability (Elesclomol + Vorinostat; first compound 0.1 µM) | relative viability (Elesclomol + Olaparib; first compound 0.003162 µM) | relative viability (Elesclomol + Olaparib; first compound 0.01 µM) | relative viability (Elesclomol + Olaparib; first compound 0.03162 µM) | relative viability (Elesclomol + Olaparib; first compound 0.1 µM) | relative viability (Elesclomol + Dasatinib; first compound 0.003162 µM) | relative viability (Elesclomol + Dasatinib; first compound 0.01 µM) | relative viability (Elesclomol + Dasatinib; first compound 0.03162 µM) | relative viability (Elesclomol + Dasatinib; first compound 0.1 µM) | relative viability (Elesclomol + Tozasertib; first compound 0.003162 µM) | relative viability (Elesclomol + Tozasertib; first compound 0.01 µM) | relative viability (Elesclomol + Tozasertib; first compound 0.03162 µM) | relative viability (Elesclomol + Tozasertib; first compound 0.1 µM) | relative viability (Elesclomol + Linsitinib; first compound 0.003162 µM) | relative viability (Elesclomol + Linsitinib; first compound 0.01 µM) | relative viability (Elesclomol + Linsitinib; first compound 0.03162 µM) | relative viability (Elesclomol + Linsitinib; first compound 0.1 µM)
NCI-H2009 | 0.679 | 0.279 | 0.162 | 0.0886 | 0.643 | 0.515 | 0.128 | 0.109 | 0.263 | 0.126 | 0.112 | 0.0747 | 0.684 | 0.219 | 0.112 | 0.0954 | 1.25 | 0.677 | 0.183 | 0.142
NCI-H2023 | 0.418 | 0.0842 | 0.0465 | 0.0461 | 0.465 | 0.272 | 0.143 | 0.102 | 0.421 | 0.117 | 0.0528 | 0.0413 | 0.282 | 0.192 | 0.0576 | 0.0475 | 0.697 | 0.319 | 0.209 | 0.0484
NCI-H2085 | 0.835 | 0.783 | 0.451 | 0.308 | 0.874 | 0.669 | 0.497 | 0.282 | 0.242 | 0.235 | 0.273 | 0.235 | 0.76 | 0.703 | 0.529 | 0.457 | 0.786 | 0.596 | 0.432 | 0.247
NCI-H2087 | 0.528 | 0.448 | 0.431 | 0.313 | 0.55 | 0.264 | 0.334 | 0.082 | 0.815 | 0.502 | 0.41 | 0.152 | 0.18 | 0.187 | 0.158 | 0.0781 | 1.01 | 0.607 | 0.587 | 0.696
NCI-H2126 | 0.852 | 0.642 | 0.745 | 0.577 | 0.913 | 0.886 | 0.887 | 0.777 | 0.659 | 0.512 | 0.3 | 0.215 | 0.792 | 0.751 | 0.359 | 0.337 | 0.665 | 0.699 | 0.731 | 0.65
NCI-H2228 | 0.628 | 0.177 | 0.125 | 0.0717 | 0.537 | 0.365 | 0.195 | 0.0479 | 0.545 | 0.269 | 0.2 | 0.039 | 0.242 | 0.257 | 0.166 | 0.051 | 0.694 | 0.541 | 0.365 | 0.0338
NCI-H2347 | 0.572 | 0.527 | 0.471 | 0.303 | 0.591 | 0.463 | 0.525 | 0.339 | 0.29 | 0.373 | 0.287 | 0.185 | 0.683 | 0.424 | 0.264 | 0.248 | 0.967 | 0.88 | 0.992 | 0.629
NCI-H2405 | 0.933 | 0.415 | 0.314 | 0.276 | 0.737 | 0.693 | 0.386 | 0.353 | 0.227 | 0.231 | 0.222 | 0.203 | 0.691 | 0.47 | 0.292 | 0.315 | 0.899 | 0.315 | 0.26 | 0.27
NCI-H3122 | 0.652 | 1.02 | 0.881 | 0.111 | 0.606 | 0.665 | 0.563 | 0.105 | 0.836 | 0.947 | 0.587 | 0.0775 | 0.329 | 0.118 | 0.0927 | 0.0898 | 1.04 | 1.07 | 0.956 | 0.228
PC-3 [JPC-3] | 0.779 | 0.489 | 0.466 | 0.372 | 1.13 | 0.968 | 0.728 | 0.627 | 0.913 | 0.914 | 1.05 | 0.647 | 0.913 | 0.783 | 0.941 | 0.569 | 0.958 | 0.907 | 0.984 | 0.791
PC-14 | 0.0807 | 0.0343 | 0.0162 | 0.0149 | 0.287 | 0.0846 | 0.0176 | 0.0205 | 0.0703 | 0.0327 | 0.0099 | 0.0111 | 0.502 | 0.0652 | 0.0256 | 0.0175 | 0.98 | 0.85 | 0.0931 | 0.0455
RERF-LC-KJ | 0.445 | 0.406 | 0.473 | 0.256 | 0.613 | 0.473 | 0.326 | 0.323 | 0.37 | 0.326 | 0.255 | 0.157 | 0.264 | 0.239 | 0.208 | 0.116 | 0.897 | 0.752 | 0.412 | 0.322
SK-LU-1 | 0.83 | 0.659 | 0.471 | 0.336 | 0.468 | 0.373 | 0.378 | 0.249 | 0.199 | 0.197 | 0.161 | 0.0738 | 0.336 | 0.271 | 0.238 | 0.15 | 1.11 | 0.835 | 0.405 | 0.12
SK-MES-1 | 1.13 | 0.481 | 0.425 | 0.284 | 0.713 | 0.656 | 0.339 | 0.231 | 0.413 | 0.25 | 0.187 | 0.148 | 0.842 | 0.791 | 0.318 | 0.479 | 1.04 | 0.814 | 0.992 | 0.62
SW 1573 | 0.331 | 0.107 | 0.112 | 0.0259 | 0.201 | 0.146 | 0.0695 | 0.0085 | 0.192 | 0.094 | 0.043 | 0.0143 | 0.133 | 0.119 | 0.0792 | 0.0199 | 0.706 | 0.224 | 0.116 | 0.102
UMC-11 | 0.391 | 0.333 | 0.411 | 0.255 | 0.54 | 0.338 | 0.279 | 0.266 | 0.439 | 0.423 | 0.374 | 0.235 | 0.205 | 0.199 | 0.185 | 0.168 | 1.02 | 1.05 | 0.672 | 0.615
